Measurements: paper PMC5114727, “Biological characterization of chemically diverse compounds targeting the Plasmodium falciparum coenzyme A synthesis pathway” (Parasites & Vectors, 2016)
“And” between values parts separate entries of the source, which are not always exact repeats. Equal entries are not always repeated. Where two headings read alike, the source gives them in different places.

What was measured:
3T3 cells = assay: 3T3 host cell cytotoxicity (part of T. cruzi amastigote image-based assay); set-up: species or system mouse; settings: bound = highest concentration with < 50 % inhibition; read-out: 3T3 cytotoxicity IC50 ± SEM
Source text: (§1) An initial indication of compound selectivity over human cells had previously been obtained through comparison of the compounds’ IC50 values against P. falciparum asexual stages and HEK293 [22]. In the present study, the selectivity investigation was extended to a small panel of human cancer cell lines, namely the estrogen receptor (ER)-positive breast cancer cell line MCF7, the ER-negative MDA-MB-231, as well as the human prostate cancer line, PC-3. Additionally, the cytotoxic effects on mouse embryonic fibroblast cell line 3T3, which serves as the host cell for T. cruzi in our image-based amastigote assay, were investigated.
(§2) Cytotoxicity of the compounds was assessed against a panel of human cancer cell lines, namely the estrogen receptor (ER)-positive breast cancer cell line MCF7, the ER-negative MDA-MB-231 and the prostate cancer line PC-3. All the cell lines were purchased from ATCC and maintained as previously described. Two biological replicates consisting of two technical replicates each were performed to generate concentration response curves (CRC) with a final highest concentration of 40 μM. A resazurin-based assay was utilized to determine cell viability as described earlier. Additionally, the cytotoxic effects on the mouse embryonic fibroblast cell line 3T3 were assessed as part of the Trypanosoma cruzi amastigote image-based assay as outlined in [35].

[1] = system: T. b. brucei trypomastigote; assay: T. b. brucei resazurin (Alamar Blue) viability assay; format: cell-based, Trypanosoma brucei brucei
Protocol: Compound activity against two members of another clinically important group of parasites, the kinetoplastids T. cruzi and T. b. brucei was determined. The sensitive high content imaging assay used to determine compound activity against T. cruzi assesses the intracellular amastigote life form of the parasite in the 3T3 host cell. […] The T. b. brucei assay employs the REDOX indicator Alamar Blue to assess viability, which was developed into a 384-well assay format.
Compound activity against T. b. brucei was assessed in a resazurin-based viability assay in concentration-response assays, without technical repeats, in two experimental replicates at a highest concentration of 40 μM, as previously described.

[2] = system: T. b. brucei trypomastigotes; assay: Chemical rescue with CoA pathway intermediates, T. b. brucei; format: cell-based, Trypanosoma brucei brucei; settings: inhibitor at IC80; for Percent rescue ± SEM by CoA, Tbb: CoA 1.0 mM; for Percent rescue ± SEM by pantethine, Tbb: pantethine 2.44 μM; for Percent rescue ± SEM by pantothenate, Tbb: pantothenate 1.25 mM
Protocol: (§3) Pantothenate is the first substrate of the pathway (Fig. 1) and its addition was intended to rescue the action of possible competitive inhibitors of the first enzyme, PanK. […] It is not known, whether P. falciparum is capable of pantetheine phosphorylation for utilization in CoA synthesis. […] Finally, the rescue ability of dP-CoA, the final substrate of CoA synthesis, was tested. […] Inhibitors competing with dP-CoA for DPCK binding were expected to be displaced, thereby rescuing parasite survival, by dP-CoA supplementation in a concentration dependent manner.
An imaging based assay was utilised to assess the chemical rescue on asexual stages of P. falciparum as described previously. All the pathway intermediates were purchased from Sigma. […]
(§4) The same concentration ranges of the CoA pathway intermediates were supplemented to parasites treated with the experimental compounds. The inhibitors were used at their respective final assay concentration of IC80 (as determined previously in the corresponding P. falciparum development stage or T. b. brucei assay). […] The negative control used in each assay was 0.4% DMSO, whilst the positive control was 2 μM artemisinin for asexual P. falciparum blood stages and 5 μM puromycin for all gametocyte stages and T. b. brucei. The percentage growth of the respective parasites following compound treatment was determined using Microsoft ® Excel 2010, and compared with their controls. All rescue assays were performed as two independent experiments each in duplicate point.

HEK293 cells = settings: as previously reported; read-out: HEK293 cytotoxicity IC50 ± SEM; cited from earlier work
MDA-MB-231 cells = assay: Resazurin cytotoxicity assay, MDA-MB-231; format: cell-based, human; settings: highest concentration 40 μM; bound = highest concentration with < 50 % inhibition; read-out: MDA-MB-231 cytotoxicity IC50 ± SEM
Source text: as §1, §2

MCF7 cells = assay: Resazurin cytotoxicity assay, MCF7; format: cell-based, human; settings: highest concentration 40 μM; bound = highest concentration with < 50 % inhibition; read-out: MCF7 cytotoxicity IC50 ± SEM
Source text: as §1, §2

T. cruzi trypomastigotes = assay: T. cruzi trypomastigote PrestoBlue assay; format: cell-based, Trypanosoma cruzi; settings: for IC50: highest concentration 40 μM, read-out: T. cruzi trypomastigote IC50 ± SEM
Protocol: Compound activity against T. cruzi trypomastigotes was assessed in two independent experiments, without technical repeats, at a final highest compound concentration of 40 μM in concentration-response PrestoBlue assay, as previously described.

T. cruzi amastigotes = assay: T. cruzi amastigote image-based assay in 3T3 host cells; format: cell-based, Trypanosoma cruzi; settings: for IC50: in 3T3 host cells, read-out: T. cruzi amastigote IC50 ± SEM; for T. cruzi amastigote percent inhibition at the highest concentration tested: 40 µM per footnote, given if an IC50 could not be calculated
Protocol: The next step taken was to determine whether the activity of the compounds was confined to P. falciparum, or whether it extended to other protozoan parasites. Compound activity against two members of another clinically important group of parasites, the kinetoplastids T. cruzi and T. b. brucei was determined. The sensitive high content imaging assay used to determine compound activity against T. cruzi assesses the intracellular amastigote life form of the parasite in the 3T3 host cell. It is important to simultaneously assess compound activity against 3T3 cells to determine potential cytotoxicity against the host cell line, since this could result in a false positive outcome. The T. b. brucei assay employs the REDOX indicator Alamar Blue to assess viability, which was developed into a 384-well assay format.
Compound activity against T. cruzi amastigotes was assessed in an image-based assay in single point concentration-response and three biological replicates, at a final highest compound concentration of […], as previously described.

[3] = system: P. falciparum asexual blood stages (PfAS); assay: Chemical rescue with CoA pathway intermediates, asexual stages; format: cell-based, Plasmodium falciparum; settings: inhibitor at IC80; for Percent rescue ± SEM by CoA, PfAS: CoA 0.8 mM; for Percent rescue ± SEM by dephospho CoA, PfAS: dP-CoA 0.8 mM; for Percent rescue ± SEM by pantethine, PfAS: pantethine 125 μM; for Percent rescue ± SEM by pantothenate, PfAS: pantothenate 300 μM
Protocol: as §3
An imaging based assay was utilised to assess the chemical rescue on asexual stages of P. falciparum as described previously. All the pathway intermediates were purchased from Sigma. CoA and dP-CoA were dissolved in sterile distilled water to obtain a 20 mM stock solution, which was then aliquoted and stored at -20 °C until use. […] Each pathway intermediate was tested on the parasites at a range of concentrations to assess potential toxicity. […] On early stage P. falciparum gametocytes the same concentrations as for CoA were tested for dP-CoA; against asexual blood stage P. falciparum, late stage gametocytes and Trypanosoma b. brucei five dP-CoA concentrations were tested (2 mM, 1.5 mM, 1 mM, 0.75 mM and 0.5 mM).
as §4

[4] = system: P. falciparum asexual blood stage; settings: as previously reported; read-out: Asexual P. falciparum IC50 ± SEM; cited from earlier work
[5] = 40 µM, given if an IC50 could not be calculated

SMILES: CC(=O)C1=C(c2ccccc2)C(=O)c2ccccc2C1=O [Amb4317088]
- IC50 (3T3 cells): 8.6 ± 0.96 µM
- IC50 ([1]; read-out: T. b. brucei IC50): 0.16 µM
- Percent rescue ± SEM by CoA, Tbb [2]: 85.0 ± 6.9%
- Percent rescue ± SEM by pantethine, Tbb [2]: No
- Percent rescue ± SEM by pantothenate, Tbb [2]: No
- IC50 (HEK293 cells): 2.33 ± 0.12 µM
- IC50 (MDA-MB-231 cells): 0.87 ± 0.04 µM
- IC50 (MCF7 cells): 4.6 ± 0.16 µM
- IC50 (T. cruzi trypomastigotes): 0.39 µM and 0.392 µM
- IC50 (T. cruzi amastigotes): 4.3 ± 0.27 µM
- Percent rescue ± SEM by CoA, PfAS [3]: 84.5 ± 7.7%
- Percent rescue ± SEM by dephospho CoA, PfAS [3]: 77.6 ± 5.5%
- Percent rescue ± SEM by pantethine, PfAS [3]: No
- Percent rescue ± SEM by pantothenate, PfAS [3]: No
- IC50 [4]: 1.23 ± 0.06 µM

SMILES: CC(=O)c1ccc2c3c(onc13)-c1ccccc1C2=O [Amb3377585]
- IC50 ([1]; read-out: T. b. brucei IC50): 0.2 µM
- Percent rescue ± SEM by CoA, Tbb [2]: 95.0 ± 4.2%
- Percent rescue ± SEM by dephospho CoA, Tbb ([2]; dP-CoA 1.6 mM): 100.4 ± 1.4%
- Percent rescue ± SEM by pantethine, Tbb [2]: No
- Percent rescue ± SEM by pantothenate, Tbb [2]: 34.2 ± 1.3% and 34 ± 1%
- IC50 (HEK293 cells): 2.75 ± 0.18 µM
- IC50 (MDA-MB-231 cells): 5.6 ± 0.33 µM
- IC50 (MCF7 cells): 9.1 ± 0.62 µM
- IC50 (T. cruzi trypomastigotes): 0.74 µM and 0.744 µM
- IC50 (T. cruzi amastigotes): 13.3 ± 2.35 µM
- Percent rescue ± SEM by CoA, PfAS [3]: 89.3 ± 2.6%
- Percent rescue ± SEM by dephospho CoA, PfAS [3]: 38.7 ± 4.7%
- Percent rescue ± SEM by pantethine, PfAS [3]: No
- Percent rescue ± SEM by pantothenate, PfAS [3]: No
- IC50 [4]: 0.15 ± 0.01 µM

SMILES: Cc1csc(Sc2ncnc3sccc23)n1 [Amb180780]
- IC50 (3T3 cells): > 40 µM
- T. b. brucei trypomastigote percent inhibition at the highest concentration tested [1, 5]: 100%
- IC50 (HEK293 cells): ~40 µM
- IC50 (MDA-MB-231 cells): > 40 µM
- IC50 (MCF7 cells): > 40 µM
- T. cruzi trypomastigote percent inhibition at the highest concentration tested (T. cruzi trypomastigotes; [5]): 100%
- T. cruzi amastigote percent inhibition at the highest concentration tested (T. cruzi amastigotes): 21%
- Percent rescue ± SEM by pantethine, PfAS [3]: 76.2 ± 7.7% and 76 ± 8%
- Percent rescue ± SEM by pantothenate, PfAS [3]: No and not by pantothenate
- IC50 [4]: 0.12 ± 0.02 µM

SMILES: CC1=CC(=O)C(C(C)C)=C/C1=N/OS(=O)(=O)c1ccccc1 [STK 740987]
- IC50 (3T3 cells): > 20 µM
- IC50 ([1]; highest concentration 40 μM, read-out: T. b. brucei trypomastigote IC50 ± SEM): 1.02 µM and 1 µM
- Percent rescue ± SEM by CoA, Tbb [2]: 69.6 ± 10.6%
- Percent rescue ± SEM by pantethine, Tbb [2]: No
- Percent rescue ± SEM by pantothenate, Tbb [2]: No
- IC50 (HEK293 cells): > 40 µM
- IC50 (MDA-MB-231 cells): > 40 µM
- IC50 (MCF7 cells): > 40 µM
- IC50 (T. cruzi trypomastigotes): 0.68 µM and 0.682 µM
- T. cruzi amastigote percent inhibition at the highest concentration tested (T. cruzi amastigotes): 54%
- Percent rescue ± SEM by CoA, PfAS [3]: 103.9 ± 3.4%
- Percent rescue ± SEM by dephospho CoA, PfAS [3]: 88.9 ± 6.7%
- Percent rescue ± SEM by pantethine, PfAS [3]: No
- Percent rescue ± SEM by pantothenate, PfAS [3]: No
- IC50 [4]: 0.38 ± 0.06 µM
